Consider 26 compounds from paper PMC7520419 (The AAPS Journal, 2020).

The conditions of data set [1]: cited from earlier work; for Observed AUC(0-inf) Fasted / Observed AUC(0-inf) Fed / Observed Cmax Fed / Observed Cmax Fasted / Observed AUC Ratios (Fed/Fasted) / Observed Cmax Ratios (Fed/Fasted): ref published clinical data (Table I).
Data set [2] is described as follows: Solubility measurement in biorelevant media (FaSSIF-V2, FeSSIF-V2). Particulars: 37 °C, thermodynamic from solid.
Method: The solubility of the drug substances was determined in biorelevant media as well as in aqueous buffers at different pH. Fasted state simulated gastric fluid (FaSSGF) ([37]), fasted state simulated intestinal fluid (FaSSIF-V2) ([38]), and fed state simulated intestinal fluid (FeSSIF-V2) ([39]) were prepared according to the instructions provided by Biorelevant (Biorelevant.com Ltd., London, UK). […] For neutral compounds, solubility was determined at pH 2, pH 4, and pH 7.
For freely soluble compounds, the extent of solubilization was measured only up to 10 mg/mL.
A short description of data set [3]: Effective human jejunum permeability (Peff,man) used in the PBPK model. Format: in vitro ADME. Particulars: human, 1 h.
Data set [4] can be described thus: PBPK food effect modeling (Simcyp V17.1 and/or GastroPlus V9.5; Model 1 / Model 2). Further details: species or system human.
For data set [5] the following is noted: not generated within this working group; ref Table I; cited from earlier work.
Where [6] appears, read: FaSSIF-V2 (fasted state simulated intestinal fluid), FaSSIF solubility.
[7] abbreviates: FeSSIF-V2 (fed state simulated intestinal fluid), FeSSIF solubility.
[8] abbreviates: clinically observed PK change (AUC, Cmax) fed vs fasted, compiled by literature search.
The mark [9] stands for this setting: direction, AUC and/or Cmax ratio fed to fasted, BE criteria 0.8–1.25, ref drug label.

Converted amounts (≈) assume the structure as drawn. Structures can show the parent of a compound that is named as a salt. Where two headings read alike, the source gives them in different places.

As usually defined, the solubility is the concentration that dissolves in the medium under given conditions. As a reminder, the pKa is the pH at which an ionisable group is half protonated. As to `CCc1cc2c(cc1N1CCC(N3CCOCC3)CC1)C(C)(C)c1[nH]c3cc(C#N)ccc3c1C2=O` [Alectinib], the “Observed AUC(0-inf) Fasted” value in data set [1] (Model 1) and in data set [1] (Model 2) was 1790 ng·h/mL in each case. Further, the “Observed AUC(0-inf) Fed” value in data set [1] (Model 1) and in data set [1] (Model 2) was 5230 ng·h/mL throughout. The “Observed Cmax Fed” value in data set [1] (Model 1) and in data set [1] (Model 2) was 257 ng/mL in each case. For the same compound, the solubility in data set [2] (setting [6]) was 23 µg/mL (≈ 47.7 µM); in data set [2] (setting [7]), 77 µg/mL (≈ 160 µM). Also, the pKa in “pKa” (pKa (b, basic)) stood at 7.05.

`CC[C@H]1OC(=O)[C@H](C)[C@@H](O[C@H]2C[C@@](C)(OC)[C@@H](O)[C@H](C)O2)[C@H](C)[C@@H](O[C@@H]2O[C@H](C)C[C@H](N(C)C)[C@H]2O)[C@](C)(OC)C[C@@H](C)C(=O)[C@H](C)[C@@H](O)[C@]1(C)O` [Clarithromycin]: in data set [1] (Model 1), the “Observed AUC(0-inf) Fasted” value is 12600 ng·h/mL, the “Observed Cmax Fasted” value was 1650 ng/mL, the “Observed AUC(0-inf) Fed” value was 15700 ng·h/mL and the “Observed Cmax Fed” value was 2510 ng/mL. Further, in data set [1] (Model 2), the “Observed AUC(0-inf) Fasted” value was 12600 ng·h/mL, the “Observed Cmax Fasted” value was 1650 ng/mL, the “Observed AUC(0-inf) Fed” value is 15700 ng·h/mL and the “Observed Cmax Fed” value is 2510 ng/mL. For the same compound, the “Food Effect” value in data set [1] (setting [8]) is “Positive (positive if the ratio of fed > fasted)”. The compound also yielded an Effective permeability in data set [3] of 30 ×10⁻⁶ cm/s. The same compound registered a solubility in data set [2] (setting [6]) of 132 µg/mL (≈ 176 µM). The compound also registered a solubility in data set [2] (setting [7]) of 1660 µg/mL (≈ 2210 µM).

Turning to `Cc1c(F)cccc1NC(=O)Nc1ccc(Cl)c(S(=O)(=O)[C@H]2CCCNC2)c1O` [Danirixin], in data set [1] (Model 1), the “Observed AUC(0-inf) Fasted” value was 10400 ng·h/mL, the “Observed Cmax Fasted” value was 3020 ng/mL, the “Observed AUC(0-inf) Fed” value was 6760 ng·h/mL and the “Observed Cmax Fed” value is 1300 ng/mL. In addition, in data set [1] (Model 1), the “Observed AUC Ratios (Fed/Fasted)” value is 0.65 and the “Observed Cmax Ratios (Fed/Fasted)” value was 0.43. Further, the “Food Effect” value in data set [1] (setting [8]) was “Negative (negative if ratio fasted > fed)”. In addition, the Food Effect entry in data set [1] (setting [9]) is listed as “Negative (negative if ratio fasted > fed)”. The same compound yielded a solubility in data set [2] (setting [6]) of 459 µg/mL (≈ 1040 µM). Moreover, in data set [4] (Model 1), the “AUC Ratio of Ratios (Sim'd / Obs'd)” value was found to be 1.51 and the “Cmax Ratio of Ratios (Sim'd / Obs'd)” value came to 1.70. The compound also yielded a pKa in “pKa” (pKa (a, acidic)) of 4.8. In addition, in “pKa” (pKa (b, basic)), the pKa turned out to be 8.1.

For `CNCCC(Oc1ccc(C(F)(F)F)cc1)c1ccccc1` (stereo not drawn) [Fluoxetine HCl], in data set [1] (Model 1), the “Observed AUC(0-inf) Fasted” value is 1930 ng·h/mL, the “Observed Cmax Fasted” value is 39.3 ng/mL, the “Observed AUC(0-inf) Fed” value is 1340 ng·h/mL and the “Observed Cmax Fed” value was 35.7 ng/mL. For the same compound, in data set [1] (Model 2), the “Observed AUC(0-inf) Fasted” value was 1930 ng·h/mL, the “Observed Cmax Fasted” value was 39.3 ng/mL, the “Observed AUC(0-inf) Fed” value was 1340 ng·h/mL and the “Observed Cmax Fed” value is 35.7 ng/mL. Also, the “food effect (FE) direction” value in data set [1] (ref drug label) was “no FE”. The same compound returned a pKa in “pKa” (pKa (b, basic)) of 9.8.

For `Cc1ccc(NC(=O)c2ccc(CN3CCN(C)CC3)cc2)cc1Nc1nccc(-c2cccnc2)n1` [Imatinib], in data set [1] (setting [9]), the Food Effect result is “None (none if no significant change in AUC and Cmax with food)”. In data set [3], this compound gave an Effective permeability of 110 ×10⁻⁶ cm/s. The “pKa (b, basic)” value in the data set “pKa” amounted to 8.07. The compound also displayed a pKa in “pKa” (pKa (b, basic)) of 3.73.

In the case of `CCC(C)n1ncn(-c2ccc(N3CCN(c4ccc(OCC5COC(Cn6cncn6)(c6ccc(Cl)cc6Cl)O5)cc4)CC3)cc2)c1=O` (stereo not drawn) [Itraconazole], in data set [1] (Model 1), the “Observed AUC(0-inf) Fasted” value is 1880 ng·h/mL, the “Observed Cmax Fasted” value is 140 ng/mL, the “Observed AUC(0-inf) Fed” value was 3120 ng·h/mL and the “Observed Cmax Fed” value was 239 ng/mL. Moreover, in data set [1] (Model 1), the “Observed AUC Ratios (Fed/Fasted)” value is listed as 1.66 and the “Observed Cmax Ratios (Fed/Fasted)” value is on record as 1.71. Besides, in data set [1] (Model 2), the “Observed AUC(0-inf) Fasted” value is 1880 ng·h/mL, the “Observed Cmax Fasted” value was 140 ng/mL, the “Observed AUC(0-inf) Fed” value was 3120 ng·h/mL and the “Observed Cmax Fed” value was 239 ng/mL. For the same compound, in data set [1] (Model 2), the “Observed AUC Ratios (Fed/Fasted)” value is 1.66 and the “Observed Cmax Ratios (Fed/Fasted)” value was 1.71. Besides, the “Food Effect” value in data set [1] (setting [8]) is recorded as “Positive (positive if the ratio of fed > fasted)”. Besides, in data set [1] (setting [9]), the Food Effect result is listed as “Positive (positive if the ratio of fed > fasted)”. Also, the Effective permeability in data set [3] amounted to 990 ×10⁻⁶ cm/s. In addition, the concentration in solution in data set [2] (setting [6]) (solubility) was 1120 µg/mL (≈ 1590 µM). This compound also returned a solubility in data set [2] (setting [7]) of 3620 µg/mL (≈ 5130 µM). In data set [4] (Model 1), the “AUC Ratio of Ratios (Sim'd / Obs'd)” value is reported as 0.82 and the “Cmax Ratio of Ratios (Sim'd / Obs'd)” value turned out to be 1.03. In data set [4] (Model 2), the “AUC Ratio of Ratios (Sim'd / Obs'd)” value worked out at 1.00 and the “Cmax Ratio of Ratios (Sim'd / Obs'd)” value is on record as 1.02. The pKa in “pKa” (pKa (b, basic)) came to 4.28.

With `CC(C)(C)NC(=O)[C@@H]1C[C@@H]2CCCC[C@@H]2CN1C[C@@H](O)[C@H](Cc1ccccc1)NC(=O)[C@H](CC(N)=O)NC(=O)c1ccc2ccccc2n1` [Saquinavir], the “Food Effect” value in data set [1] (setting [8]) is listed as “Positive (positive if the ratio of fed > fasted)”.

Regarding `COc1cccc(CCc2ccccc2OCC(CN(C)C)OC(=O)CCC(=O)O)c1` (stereo not drawn) [Sarpogrelate], the “Food Effect” value in data set [1] (setting [8]) is “Negative (negative if ratio fasted > fed)”.

For `CN[C@H]1CC[C@@H](c2ccc(Cl)c(Cl)c2)c2ccccc21` [Sertraline], the “Food Effect” value in data set [1] (setting [8]) was “None (none if no significant change in AUC and Cmax with food)”.

As to `N[C@@H](CC(=O)N1CCn2c(nnc2C(F)(F)F)C1)Cc1cc(F)c(F)cc1F` [Sitagliptin], in data set [1] (setting [8]), the “Food Effect” value was “None (none if no significant change in AUC and Cmax with food)”.

Regarding `Cc1c(C(=O)Nc2ccc(N3C[C@@H](C)O[C@@H](C)C3)nc2)cccc1-c1ccc(OC(F)(F)F)cc1` [Sonidegib], the “Food Effect” value in data set [1] (setting [8]) is reported as “Positive (positive if the ratio of fed > fasted)”.

For the compound `CC(C)(C)c1nc(-c2cccc(NS(=O)(=O)c3c(F)cccc3F)c2F)c(-c2ccnc(N)n2)s1` [Tafinlar], in data set [1] (setting [8]), the “Food Effect” value is “Negative (negative if ratio fasted > fed)”.

Take `CCOc1ccccc1OCCN[C@H](C)Cc1ccc(OC)c(S(N)(=O)=O)c1` [Tamsulosin hydrochloride]: in data set [1] (setting [8]), the “Food Effect” value is listed as “Negative (negative if ratio fasted > fed)”.

As to `CCC[C@H](NC(=O)[C@@H]1[C@H]2CCC[C@H]2CN1C(=O)[C@@H](NC(=O)[C@@H](NC(=O)c1cnccn1)C1CCCCC1)C(C)(C)C)C(=O)C(=O)NC1CC1` [Telapravir], the “Food Effect” value in data set [1] (setting [8]) is on record as “Positive (positive if the ratio of fed > fasted)”.

Turning to `Cc1ccc(O)c([C@H](CCN(C(C)C)C(C)C)c2ccccc2)c1` [Tolterodine tartrate], the “Food Effect” value in data set [1] (setting [8]) is “None (none if no significant change in AUC and Cmax with food)”.

For the compound `CC1(C)O[C@@H]2[C@@H](CO[C@@]3(COS(N)(=O)=O)OC(C)(C)O[C@@H]23)O1` [Topiramate], in data set [1] (setting [8]), the “Food Effect” value was “None (none if no significant change in AUC and Cmax with food)”.

As to `CSc1nc2cc(Cl)c(Oc3cccc(Cl)c3Cl)cc2[nH]1` [Triclabendazole], the “Food Effect” value in data set [1] (setting [8]) is reported as “Positive (positive if the ratio of fed > fasted)”.

Take `Cc1c(C)c2c(c(C)c1O)CCC(C)(COc1ccc(CC3SC(=O)NC3=O)cc1)O2` (stereo not drawn) [Troglitazone]: the “Food Effect” value in data set [1] (setting [8]) is on record as “Positive (positive if the ratio of fed > fasted)”.

`O=C(O[C@H]1C[C@H]2CC[C@@H](C1)[N+]21CCCC1)C(O)(c1ccccc1)c1ccccc1` [Trospium Chloride]: the “Food Effect” value in data set [1] (setting [8]) was “Negative (negative if ratio fasted > fed)”.

Turning to `Cc1onc(-c2ccccc2)c1-c1ccc(S(N)(=O)=O)cc1` [Valdecoxib], the “Food Effect” value in data set [1] (setting [8]) is “None (none if no significant change in AUC and Cmax with food)”.

Take `CCCS(=O)(=O)Nc1ccc(F)c(C(=O)c2c[nH]c3ncc(-c4ccc(Cl)cc4)cc23)c1F` [Vemurafenib]: the “Food Effect” value in data set [1] (setting [8]) was “Positive (positive if the ratio of fed > fasted)”.

Regarding `Nc1ccn([C@H]2CC[C@@H](CO)O2)c(=O)n1` [Zalcitabine], the “Food Effect” value in data set [1] (setting [8]) was “None (none if no significant change in AUC and Cmax with food)”.

On to `Cc1cn([C@H]2C[C@H](N=[N+]=[N-])[C@@H](CO)O2)c(=O)[nH]c1=O` [Zidovudine], for which, in data set [1] (Model 1), the “Observed AUC(0-inf) Fasted” value was 2480 ng·h/mL, the “Observed Cmax Fasted” value was 1130 ng/mL, the “Observed AUC(0-inf) Fed” value is 2170 ng·h/mL and the “Observed Cmax Fed” value is 632 ng/mL. In addition, the “Food Effect” value in data set [1] (setting [8]) is “Negative (negative if ratio fasted > fed)”. Also, in data set [1] (ref drug label), the “food effect (FE) direction” value is reported as “negative FE”. The pKa in “pKa” (pKa (b, basic)) was 9.7.

For the compound `O=C1Cc2cc(CCN3CCN(c4nsc5ccccc45)CC3)c(Cl)cc2N1` [Ziprasidone hydrochloride], in data set [1] (setting [8]), the “Food Effect” value was “Positive (positive if the ratio of fed > fasted)”.

As for `CN(C)CCc1c[nH]c2ccc(C[C@H]3COC(=O)N3)cc12` [Zolmitriptan], the “Food Effect” value in data set [1] (setting [8]) was “None (none if no significant change in AUC and Cmax with food)”.

Take `CC(C)NC[C@@H](O)c1ccc(NS(C)(=O)=O)cc1` [d-Sotalol]: in data set [1] (Model 1), the “Observed AUC(0-inf) Fasted” value is 15500 ng·h/mL, the “Observed Cmax Fasted” value was 1200 ng/mL and the “Observed AUC(0-inf) Fed” value is 12600 ng·h/mL. In data set [1] (setting [8]), the “Food Effect” value is “None (none if no significant change in AUC and Cmax with food)”. For the same compound, in data set [5], the “Solubility at pH 6.5” value is 15,800^^ μg/ml. For the same compound, the “pKa (b, basic)” value in the data set “pKa” is on record as 9.72. This compound also displayed a pKa in the data set “pKa” (pKa (a, acidic)) of 8.28.
